Experimental data taken from patent US10857201B2, “NNIF and nNIF-related peptides and related methods” (UNIVERSITY OF UTAH RESEARCH FOUNDATION, priority 2016, dated 2020).

Key:
[1] = test system: platelets; assay: P-selectin surface translocation on thrombin-activated platelets (flow cytometry); format: cell-based, human; conditions: thrombin 0.1 U/mL; peptide 1 nM
Method: FIG. 6E is a graph depicting surface translocation of P-selectin on platelets activated by thrombin (0.1 U/mL) that was measured by flow cytometry. The dashed line indicates surface P-selectin on unstimulated platelets.
(§1) P-selectin translocation and surface display by activated platelets (see van Velzen J F, et al., Thromb Res. 2012; 130 (1):92-8) and formation of platelet-neutrophil aggregates (see Evangelista V, et al., Blood. 1996; 88 (11):4183-94) were measured as described.

[2] = test system: C57BL/6 mice challenged with LPS; assay: Mouse model of systemic inflammation induced by LPS (endotoxemia), survival; format: in vivo
Method: Animals with no treatments or given LPS alone were studied in parallel (n≥10 mice for each condition). **P<0.01, log-rank (Mantel-Cox) statistical tool used. The survival difference between nNIF-LPS and CRISPP-LPS compared to CRISPP-SCR-LPS trended toward significance (§ P=0.051).
Control mice were i.p. injected with saline alone. Fluid resuscitation and antibiotic treatment were not used in these experiments. Survival was assessed over 50 or 72 hour intervals. All mice were included in the final survival analysis.

[3] = test system: PMN killing of a pathogenic strain of Escherichia coli; assay: Bacterial killing assay (total, phagocytic, NET-mediated); format: cell-based, human; conditions: LPS-stimulated PMNs, E. coli
Method: FIG. 6A is a graph depicting results, after preincubation, of neutrophils that were stimulated with LPS (100 ng/mL) to trigger NET formation and incubated with a pathogenic isolate of E. coli. Total, phagocytic, and NET-mediated bacterial killing were measured (see Yost C C, et al., Blood. 2009; 113 (25):6419-27). One way ANOVA with Bonferonni's post hoc testing; *P<0.05, **P<0.01.
NET-mediated and phagocytic bacterial killing by primary human PMNs was determined as previously described (see Yost C C, et al., Blood. 2009; 113 (25):6419-27).
Without being bound by any specific theory, it was hypothesized that placentally expressed HTRA1, a serine protease, regulates the formation of NET-inhibitory peptides through cleavage of AAT. To test this hypothesis, term and preterm placenta were assessed for HTRA1 expression via western blotting. HTRA1 and AAT plasma expression from term and preterm infants and adults were determined by ELISA. Bioactive (0.5 μg) or placental eluted HTRA1 was incubated with AAT (8 μM) for 18 hours at 37° C. Carboxy-terminus fragments of AAT were detected using western blotting and mass spectrometry. The reaction products were incubated for 1 hour with PMNs isolated from healthy adults prior to LPS stimulation (100 ng/mL) and assessed for NET formation using live cell imaging. Reactive oxygen species were assessed using flow cytometry, chemotaxis using a modified Boyden chamber assay, and bacterial killing using E. coli.

[4] = test system: activated human platelets and PMNs; assay: Platelet-neutrophil aggregate formation; format: cell-based; conditions: thrombin 0.1 U/mL, LPS 100 ng/mL; peptide 1 nM
Method: FIG. 6F is a graph depicting formation of platelet-neutrophil aggregates that was measured after mixing of platelets activated with thrombin (0.1 U/mL) and neutrophils activated with LPS (100 ng/mL). The dashed line indicates control aggregate formation in response to LPS stimulation of the PMNs alone. *P<0.05 for CRISPP and CRISPP-SCR compared to control. FIGS. 6A-6F are a series of graphs depicting isolated adult neutrophils or platelets that were preincubated with buffer or with CRISPP, nNIF, or CRISPP-SCR (1 nM, 1 hour for each) followed by measurement of functional responses. A minimum of three separate assays were done for each response. Error bars=SEM. Tukey's post hoc testing was applied in FIGS. 6B, 6D, 6E, and 6F.
as §1

[5] = test system: C57BL/6 mice subjected to CLP; assay: Mouse model of polymicrobial sepsis, cecal ligation and puncture (CLP); conditions: 10 mg/kg i.p. 1 hour before and 6 hours after, versus nNIF-SCR
Method: FIG. 9B is a graph depicting C57BL/6 mice that were subjected to cecal ligation and puncture (CLP). nNIF or nNIF-SCR (10 mg/kg i.p.) was given 1 hour before and 6 hours after surgery (n≥7 in each group). Mice subjected to sham surgery were studied in parallel (n=3 in each group). Clinical illness severity scores (see Araujo C V, et al., Shock. 2016; 45 (4):393-403) were determined at 24 hours.
C57BL/6 mice were anaesthetized with ketamine/xylazine (100 mg/kg and 10 mg/kg, i.p; respectively), and cecal ligation and puncture (CLP) was performed as previously described (see Araujo C V, et al., Shock. 2016; 45 (4):393-403). nNIF (10 mg/kg) or nNIF-SCR (10 mg/kg) i.p. was given 1 hour prior to and 6 hours after CLP surgery. The animals received subcutaneous sterile isotonic saline (1 mL) for fluid resuscitation immediately after the surgery. Sham-operated mice were subjected to identical procedures except that CLP was not done. 24 hours after CLP, all animals were scored for clinical illness severity as previously described (see Araujo C V, et al., Shock. 2016; 45 (4):393-403). In this assessment, higher scores reflect increased illness severity.

Substance	surface translocation of P-selectin by thrombin-stimulated platelets [1]	animals alive at 50 hours ([2]; i.p. LPS, first experiment, n=6 per group)	extracellular NET-mediated bacterial killing [3]	phagocytic intracellular killing [3]	total bacterial killing [3]	formation of heterotypic aggregates by activated platelets and PMNs [4]	survival advantage at 72 hours ([2]; second experiment, compared to LPS alone)	clinical illness scores at 24 hours [5]
M_IPPEVKFNKPFVFLMIDQNTKVPLFMGK [CRISPP, consensus peptide based on factors present in the blood of patients with cancer]	does not inhibit	all	depressed	not altered	depressed	does not inhibit		
KFNKPFVFLMIEQNTKSPLFMGKVVNPTQ (listed as Homo sapiens) [nNIF]							durable	lower
